From patent US20090217393A1, “Growth Promoting Agent and Life Prolonging Agent” (B FOOD SCIENCE CO., LTD., priority 2005, published 2009)

How the values were obtained:
Radish sprouts = test: Radish sprout cultivation test; assay type: in vivo
Method: Radish sprouts were cultivated in 0.75% agar mediums containing erythritol, mannitol, and sorbitol each at concentrations of 0.05% by mass, 0.1% by mass, and 0.5% by mass as sugar alcohols, and in an agar medium containing no sugar alcohol (0%). 3 and 6 days after germination, the lengths of radish sprouts were measured.

[1] = test system: Layers (white Plymouth Rock); test: Layer growth test; assay type: in vivo; conditions: feed containing 5% by mass of erythritol
Method: Layers (white Plymouth Rock) were divided into a group fed with a feed containing 5% by mass of erythritol (erythritol-added group; the present invention) and a group fed with a feed containing no erythritol (no-erythritol-added group; control), and bred. The breeding was performed for 24 months, which was generally defined so as to generate economic benefits, and the survival rates were continuously watched. Meanwhile, average body weights (g) were continuously watched for four weeks.

Crj:BDF1 mice (male) = test: Mouse breeding test; assay type: in vivo; conditions: feed containing 5% by mass of erythritol
Description: Crj:BDF1 mice (male) were divided into a group fed with a feed containing 5% by mass of erythritol (erythritol-added group; the present invention) and a group fed with a feed containing no erythritol (no-erythritol-added group; control), and bred, followed by investigation of 50% survival times, 75% survival times, average survival times, survival rates, and maximum survival times.

Arabidopsis plants = test: Arabidopsis plant cultivation test; assay type: in vivo; conditions: Murashige & Skoog medium containing 0.06% by mass of erythritol; vs control
Description: Arabidopsis plants were separately inoculated into a Murashige & Skoog medium containing 0.06% by mass of erythritol (erythritol-added group; the present invention) and a medium containing no erythritol (no-erythritol-added group; control), followed by comparison of growth of the Arabidopsis plants.

shiitake = test: Mushroom (shiitake) cultivation test; assay type: in vivo; conditions: for Number of mushroom with pileus diameter of 5 cm or more: 8 days later, control 2
Method: A shiitake cultivation test was performed using a commercially available shiitake cultivation kit.
The cultivation kit is a product produced by hardening wood chips prepared by pulverizing broad-leaved tree, together with a nutritional supplement and a shiitake fungus into a block form. The blocks were separately immersed in aqueous solutions containing 0% by mass (no addition), 0.05% by mass, 0.5% by mass, and 5% by mass of erythritol, and the surfaces of the blocks were washed. Then, the blocks were placed in plastic bags to prevent drying, and the tops of the bags were closed with clothespins, followed by cultivation of the shiitake while adjusting the temperature to 23° C. during the daytime and to 8° C. during the nighttime. Whenever the surfaces of the blocks were dried, the surfaces of the blocks were moisturized using a spray with the aqueous solutions containing erythritol at the above-mentioned each concentration. 3 days later, the shiitake started to germinate on the blocks, and 8 days later, the diameter and number of each pileus of the shiitake were measured.

[2] = test system: yeast Saccharomyces cerevisiae; test: Yeast culture test; assay type: cell-based; conditions: SD medium containing 0.006% by mass of erythritol
Method: A yeast Saccharomyces cerevisiae was cultured in an SD medium containing 0.006% by mass of erythritol (erythritol-added group; the present invention) and in an SD medium containing no erythritol (no-erythritol-added group; control). 27 hours later, absorbances at 660 nm were measured.

[3] = 0.05% by mass sugar alcohol in 0.75% agar medium, After 3 days
[4] = 0.05% by mass sugar alcohol in 0.75% agar medium, After 6 days
[5] = 0.1% by mass sugar alcohol in 0.75% agar medium, After 3 days
[6] = 0.1% by mass sugar alcohol in 0.75% agar medium, After 6 days
[7] = 0.5% by mass sugar alcohol in 0.75% agar medium, After 3 days
[8] = 0.5% by mass sugar alcohol in 0.75% agar medium, After 6 days

Compound: OC[C@@H](O)[C@@H](O)CO [erythritol]
- Lengths of radish sprouts (Radish sprouts; [3]): 46 mm
- Lengths of radish sprouts (Radish sprouts; [4]): 109 mm
- length of radish sprouts / growth promoting effect compared with no-sugar-alcohol-added group (Radish sprouts; 0.05 to 0.5% by mass in agar medium): particularly excellent growth promoting effects
- Lengths of radish sprouts (Radish sprouts; [5]): 30 mm
- Lengths of radish sprouts (Radish sprouts; [6]): 76 mm
- Lengths of radish sprouts (Radish sprouts; [7]): 31 mm
- Lengths of radish sprouts (Radish sprouts; [8]): 87 mm
- survival rate compared with control ([1]; breeding for 24 months, FIG. 2): increased
- average body weight compared with control ([1]; watched for four weeks, FIG. 3): increased
- 50% survival time (Crj:BDF1 mice (male); Crj:BDF1 male mice): 927 days
- 75% survival time (Crj:BDF1 mice (male); Crj:BDF1 male mice): 850 days
- Average survival time (Crj:BDF1 mice (male); Crj:BDF1 male mice): 768 days
- Maximum survival time (Crj:BDF1 mice (male); Crj:BDF1 male mice): 1,080 days
- 50% survival time compared with control (Crj:BDF1 mice (male); vs no-erythritol-added group): prolonged
- 75% survival time compared with control (Crj:BDF1 mice (male); vs no-erythritol-added group): prolonged
- average survival time compared with control (Crj:BDF1 mice (male); vs no-erythritol-added group): prolonged
- maximum survival time compared with control (Crj:BDF1 mice (male); vs no-erythritol-added group): no significant difference
- survival rate compared with control (Crj:BDF1 mice (male); vs no-erythritol-added group): prolonged
- growth promoting effect on roots and leaves/stems (Arabidopsis plants): confirmed
- Number of mushroom with pileus diameter of 5 cm or more (shiitake; 0.05% by mass erythritol aqueous solution): 8
- Number of mushroom with pileus diameter of 5 cm or more (shiitake; 0.5% by mass erythritol aqueous solution): 5
- Number of mushroom with pileus diameter of 5 cm or more (shiitake; 5.0% by mass erythritol aqueous solution): 9
- numbers of mushrooms with a pileus diameter of 5 cm or more compared with control (shiitake; all the concentrations (0.05, 0.5, 5% by mass)): significantly increase
- yeast proliferation effect [2]: confirmed
- absorbance at 660 nm ([2]; 27 hours later, control 2.65): 2.88
- sizes of the yeast cells larger than control ([2]; under a microscope): about 20%

Compound: OC[C@@H](O)[C@@H](O)[C@H](O)[C@H](O)CO [mannitol]
- Lengths of radish sprouts (Radish sprouts; [3]): 15 mm
- Lengths of radish sprouts (Radish sprouts; [4]): 59 mm
- Lengths of radish sprouts (Radish sprouts; [5]): 29 mm
- Lengths of radish sprouts (Radish sprouts; [6]): 61 mm
- Lengths of radish sprouts (Radish sprouts; [7]): 24 mm
- Lengths of radish sprouts (Radish sprouts; [8]): 55 mm

Compound: OC[C@@H](O)[C@@H](O)[C@H](O)[C@@H](O)CO [sorbitol]
- Lengths of radish sprouts (Radish sprouts; [3]): 30 mm
- Lengths of radish sprouts (Radish sprouts; [4]): 68 mm
- Lengths of radish sprouts (Radish sprouts; [5]): 31 mm
- Lengths of radish sprouts (Radish sprouts; [6]): 64 mm
- Lengths of radish sprouts (Radish sprouts; [7]): 27 mm
- Lengths of radish sprouts (Radish sprouts; [8]): 52 mm
